Measurements reported in patent US12102682B1, “Injectable photothermal hydrogel based on melanin, preparation method, and application thereof” (OCEAN UNIVERSITY OF CHINA, priority 2023, dated 2024).
Counter-ions that a name gives are not always drawn.

Experiment: Body weight, organ index and HE histopathology of treated mice
Assay type: in vivo
Settings: for Change in body weight: tumor-bearing mice, intratumoral injection, 14 days, DOX 5 mg/kg, ICG 1 mg/kg, LASER groups 808 nm 1 W/cm^2 5 min
Description: Thirty female mice were randomly divided into 6 groups with 5 mice per group: (1) a saline group: injection of saline only; (2) a DOX group (5 mg/kg): injection of DOX; (3) a GEL/LASER group: a combined effect of the HPCS/MP hydrogel and NIR light irradiation; (4) a GEL/DOX (5 mg/kg) group: an effect of the HPCS/MP hydrogel encapsulating DOX·HCL; (5) a GEL/DOX (5 mg/kg)/LASER group: a combined effect of HPCS/MP hydrogel encapsulating DOX·HCL and NIR light irradiation, and (6) an indocyanine green (ICG) (1 mg/kg) group: injection of ICG. The different groups of mice were injected with 100 μL of saline, DOX, ICG, an HPCS/MP hydrogel precursor solution, and a GEL/DOX hydrogel precursor solution by intratumoral injection.
In the laser irradiation group LASER was irradiated for 5 min using an laser of 808 nm at a power of 1 W/cm^2 on days 2, 4, 6, 8, 10, and 12 after drug administration, and an irradiated site was a tumor site visible to naked eyes, with a light source positioned 5 cm from a body surface. The date of irradiation was designated as day 1, and an observation period extended to 14 days. A tumor volume was measured with a vernier caliper and a weight of the mice was weighed using an electronic balance every two days, and then a curve of the tumor volume, the body weight, and time was plotted. On the 14th day, the mice were euthanized, and axillary tumor bodies and tissues of the heart, liver, spleen, lung, and kidney of the mice were collected. The weights of the tumors and organ tissues of the various groups were accurately measured and recorded to calculate a tumor inhibition rate and an organ index of each group. Then immunohistochemistry and HE staining were performed for pathological analysis.

Row | Structure (SMILES) | HE staining of liver sections compared with control group (mice, 14th day) | HE staining of lung tissues (mice, 14th day) | HE staining of renal tissue sections (mice, 14th day) | HE staining of spleen tissues compared with control group (mice, 14th day) | Liver index compared to control group (mice, 14th day) | Change in body weight
1 | COc1cccc2c1C(=O)c1c(O)c3c(c(O)c1C2=O)C[C@@](O)(C(=O)CO)C[C@@H]3O[C@H]1C[C@H](N)[C@H](O)[C@H](C)O1 [DOX, doxorubicin hydrochloride] | very loose | some degree of damage | some slight damage | tissues became loose | significantly reduced | significant downward trend in the body weight
2 | CC1(C)C(/C=C/C=C/C=C/C=C2\N(CCCCS(=O)(=O)O)c3ccc4ccccc4c3C2(C)C)=[N+](CCCCS(=O)(=O)[O-])c2ccc3ccccc3c21 [ICG, indocyanine green] | slight loosening |  |  |  |  | decrease trend in the body weight
